# Data from patent US5292733A, “Cephalosporin compounds” (Lucky Limited, priority 1991, dated 1994).
# Tests used:
# Assay in all cases: Antibacterial activity MIC, two-fold agar dilution
# Type in all cases: cell-based
# [1] = tested on: Staphylococcus aureus ATCC 6538p; settings: ATCC6538P; Staphylococcus aureus ATCC 6538p; Muller-Hinton agar, 37° C., 20 hours; read-out: Antibacterial Activity MIC
# Protocol: (§1) These MIC values were taken by employing a two-fold dilution method: that is, two-fold serial dilutions of each of the test compounds were made and dispersed in a Muller-Hinton agar medium; 2 μl of the standard test strain which had the 10^7 CFU(Colony Forming Unit) per ml was inoculated on the medium; and these were incubated at 37° C. for 20 hours. The results of the MIC tests are shown Table 1.
# [2] = tested on: Proteus vulgaris ATCC 6059; settings: ATCC6059; Proteus vulgaris ATCC 6059; Muller-Hinton agar, 37° C., 20 hours; read-out: Antibacterial Activity MIC
# Protocol: as §1
# [3] = tested on: Micrococcus luteus ATCC 9341; settings: ATCC9341; Micrococcus luteus ATCC 9341; Muller-Hinton agar, 37° C., 20 hours; read-out: Antibacterial Activity MIC
# Protocol: as §1
# [4] = tested on: Escherichia coli ATCC 25922; settings: ATCC25922, Muller-Hinton agar, 37° C., 20 hours
# Protocol: as §1
# [5] = tested on: Escherichia coli ATCC 10536; settings: ATCC10536, Muller-Hinton agar, 37° C., 20 hours
# Protocol: as §1
# [6] = tested on: Bacillus megaterium ATCC 9885; settings: Priestia megaterium, ATCC9885; Bacillus megaterium ATCC 9885; Muller-Hinton agar, 37° C., 20 hours; read-out: Antibacterial Activity MIC
# Protocol: as §1
# [7] = tested on: Serratia marcescens ATCC 27117; settings: ATCC27117; Serratia marcescens ATCC 27117; Muller-Hinton agar, 37° C., 20 hours; read-out: Antibacterial Activity MIC
# Protocol: as §1
# [8] = tested on: Enterobacter cloacae ATCC 27508; settings: ATCC27508; Enterobacter cloacae ATCC 27508; Muller-Hinton agar, 37° C., 20 hours; read-out: Antibacterial Activity MIC
# Protocol: as §1
# [9] = tested on: Bacillus cereus ATCC 11778; settings: ATCC11778; Bacillus cereus ATCC 11778; Muller-Hinton agar, 37° C., 20 hours; read-out: Antibacterial Activity MIC
# Protocol: as §1
# [10] = tested on: Shigella flexneri ATCC 11836; settings: ATCC11836, Muller-Hinton agar, 37° C., 20 hours
# Protocol: as §1
# [11] = tested on: Klebsiella pneumoniae ATCC 10031; settings: ATCC10031; Klebsiella pneumoniae ATCC 10031; Muller-Hinton agar, 37° C., 20 hours; read-out: Antibacterial Activity MIC
# Protocol: as §1
# [12] = tested on: Acinetobacter calcoaceticus ATCC 15473; settings: ATCC15473; Acinetobacter calcoaceticus ATCC 15473; Muller-Hinton agar, 37° C., 20 hours; read-out: Antibacterial Activity MIC
# Protocol: as §1
# [13] = tested on: Enterobacter aerogenes ATCC 29751; settings: Klebsiella aerogenes, ATCC29751; Enterobacter aerogenes ATCC 29751; Muller-Hinton agar, 37° C., 20 hours; read-out: Antibacterial Activity MIC
# Protocol: as §1
# [14] = tested on: Citrobacter freundii ATCC 8090; settings: ATCC8090; Citrobacter freundii ATCC 8090; Muller-Hinton agar, 37° C., 20 hours; read-out: Antibacterial Activity MIC
# Protocol: as §1
# [15] = tested on: Shigella sonnei ATCC 11060; settings: ATCC11060, Muller-Hinton agar, 37° C., 20 hours
# Protocol: as §1
# [16] = tested on: Pseudomonas aeruginosa ATCC 10145; settings: ATCC10145; Pseudomonas aeruginosa ATCC 10145; Muller-Hinton agar, 37° C., 20 hours; read-out: Antibacterial Activity MIC
# Protocol: as §1
# [17] = tested on: Pseudomonas aeruginosa ATCC 27853; settings: ATCC27853; Pseudomonas aeruginosa ATCC 27853; Muller-Hinton agar, 37° C., 20 hours; read-out: Antibacterial Activity MIC
# Protocol: as §1
# [18] = tested on: Proteus mirabilis ATCC 25933; settings: ATCC25933; Proteus mirabilis ATCC 25933; Muller-Hinton agar, 37° C., 20 hours; read-out: Antibacterial Activity MIC
# Protocol: as §1
# [19] = tested on: Pseudomonas aeruginosa ATCC 25619; settings: ATCC25619; Pseudomonas aeruginosa ATCC 25619; Muller-Hinton agar, 37° C., 20 hours; read-out: Antibacterial Activity MIC
# Protocol: as §1
# [20] = tested on: Salmonella typhimurium ATCC 14028; settings: Salmonella enterica; Salmonella typhimurium ATCC 14028; Muller-Hinton agar, 37° C., 20 hours; read-out: Antibacterial Activity MIC
# Protocol: as §1
# [21] = tested on: Staphylococcus aureus ATCC 10537; settings: ATCC10537; Staphylococcus aureus ATCC 10537; Muller-Hinton agar, 37° C., 20 hours; read-out: Antibacterial Activity MIC
# Protocol: as §1
# [22] = tested on: Morganella morganii ATCC 8076h; settings: ATCC8076H, Muller-Hinton agar, 37° C., 20 hours
# Protocol: as §1
# [23] = tested on: Providencia rettgeri ATCC 9250; settings: ATCC9250, Muller-Hinton agar, 37° C., 20 hours
# Protocol: as §1
# [24] = tested on: Streptococcus faecalis ATCC 29212; settings: Enterococcus faecalis, ATCC29212; Streptococcus faecalis ATCC 29212; Muller-Hinton agar, 37° C., 20 hours; read-out: Antibacterial Activity MIC
# Protocol: as §1
# [25] = tested on: Staphylococcus epidermidis ATCC 12228; settings: ATCC12228; Staphylococcus epidermidis ATCC 12228; Muller-Hinton agar, 37° C., 20 hours; read-out: Antibacterial Activity MIC
# Protocol: as §1
smiles,measurement,setting,value
C[n+]1c(SCC2=C(C(=O)[O-])N3C(=O)[C@@H](NC(=O)/C(=N\OC(C)(C)C(=O)O)c4csc(N)n4)[C@H]3SC2)cc(N)nc1N [Compound I-1],MIC,[1],8 µg/mL
same,MIC,[2],0.31 µg/mL
same,MIC,[3],0.5 µg/mL
same,MIC,[4],0.13 µg/mL
same,MIC,[5],0.13 µg/mL
same,MIC,[6],0.25 µg/mL
same,MIC,[7],0.13 µg/mL
same,MIC,[8],0.016 µg/mL
same,MIC,[9],128 µg/mL
same,MIC,[10],0.031 µg/mL
same,MIC,[11],0.031 µg/mL
same,MIC,[12],4 µg/mL
same,MIC,[13],2 µg/mL
same,MIC,[14],0.13 µg/mL
same,MIC,[15],0.25 µg/mL
same,MIC,[16],2 µg/mL
same,MIC,[17],1 µg/mL
same,MIC,[18],0.31 µg/mL
same,MIC,[19],1 µg/mL
same,MIC,[20],0.5 µg/mL
same,MIC,[21],4 µg/mL
same,MIC,[22],≤ 0.008 µg/mL
same,MIC,[23],≤ 0.008 µg/mL
same,MIC,[24],> 128 µg/mL
same,MIC,[25],2 µg/mL
"CC[n+]1c(SCC2=C(C(=O)[O-])N3C(=O)[C@@H](NC(=O)/C(=N\OC(C)(C)C(=O)O)c4csc(N)n4)[C@H]3SC2)cc(N)nc1N [Compound I-2, (6R,7R)-7-[(Z)-2-(2-aminothiazol-4-yl)-2-(carboxyprop-2-oxyimino)acetamido]-3-(2,6-diamino-3-ethylpyrimidinium-4-yl)thiomethyl-3-cephem-4-carboxylate]",MIC,[1],4 µg/mL
same,MIC,[2],0.13 µg/mL
same,MIC,[3],0.5 µg/mL
same,MIC,[4],0.063 µg/mL
same,MIC,[5],0.063 µg/mL
same,MIC,[6],0.25 µg/mL
same,MIC,[7],0.13 µg/mL
same,MIC,[8],0.016 µg/mL
same,MIC,[9],64 µg/mL
same,MIC,[10],0.031 µg/mL
same,MIC,[11],0.031 µg/mL
same,MIC,[12],4 µg/mL
same,MIC,[13],1 µg/mL
same,MIC,[14],0.13 µg/mL
same,MIC,[15],0.25 µg/mL
same,MIC,[16],1 µg/mL
same,MIC,[17],1 µg/mL
same,MIC,[18],0.31 µg/mL
same,MIC,[19],1 µg/mL
same,MIC,[20],0.5 µg/mL
same,MIC,[21],4 µg/mL
same,MIC,[22],≤ 0.008 µg/mL
same,MIC,[23],≤ 0.008 µg/mL
same,MIC,[24],> 128 µg/mL
same,MIC,[25],1 µg/mL
"CC(O/N=C(\C(=O)N[C@@H]1C(=O)N2C(C(=O)[O-])=C(CSc3cc(N)nc(N)[n+]3C)CS[C@H]12)c1csc(N)n1)C(=O)O (stereo partly drawn) [Compound I-3, (6R,7R)-7-[(Z)-2-(2-aminothiazol-4-yl)-2-(R,S-carboxyeth-1-oxyimino)acetamido]-3-(2,6-diamino-3-methylpyrimidinium-4-yl)thiomethyl-3-cephem-4-carboxylate]",MIC,[1],4 µg/mL
same,MIC,[2],0.063 µg/mL
same,MIC,[3],0.5 µg/mL
same,MIC,[4],0.13 µg/mL
same,MIC,[5],0.13 µg/mL
same,MIC,[6],0.25 µg/mL
same,MIC,[7],0.13 µg/mL
same,MIC,[8],0.016 µg/mL
same,MIC,[9],64 µg/mL
same,MIC,[10],0.031 µg/mL
same,MIC,[11],0.031 µg/mL
same,MIC,[12],2 µg/mL
same,MIC,[13],2 µg/mL
same,MIC,[14],0.13 µg/mL
same,MIC,[15],0.25 µg/mL
same,MIC,[16],1 µg/mL
same,MIC,[17],1 µg/mL
same,MIC,[18],0.31 µg/mL
same,MIC,[19],1 µg/mL
same,MIC,[20],0.5 µg/mL
same,MIC,[21],4 µg/mL
same,MIC,[22],≤ 0.008 µg/mL
same,MIC,[23],≤ 0.008 µg/mL
same,MIC,[24],> 128 µg/mL
same,MIC,[25],2 µg/mL
